Test results published in paper PMC9538944, “In vitro biotransformation assays using fish liver cells: Comparing rainbow trout and carp hepatocytes” (Frontiers in Toxicology, 2022).
Where “and” joins values, the source holds several entries; their conditions need not be identical. Identical values can stand only once.

Key:
[1] = parameters: method as in Fay et al., 2014b; conditions: ref Fay et al., 2014b; cited from earlier work
[2] = In vivo bioconcentration test OECD TG 305, trout; parameters: species or system Oncorhynchus mykiss; conditions: rainbow trout (Oncorhynchus mykiss), in vivo, rainbow trout; for concentration at 7 d: day 7 (uptake); for concentration at 14 d: day 14 (uptake); for concentration at 21 d: day 21 (uptake); for concentration at 28 d: day 28 (uptake); for concentration at 40 d: day 40 (depuration)
Description: (§1) In vivo BCF values for MXC and BaP in carp and trout were determined in bioconcentration tests with both species in accordance to OECD TG 305 ([OECD, 2012]). The studies were approved by the State Agency for Nature, Environment and Consumer Protection (LANUV) North Rhine-Westphalia. The fish were exposed to a single concentration of both test items in a flow-through system for 35 days. No control groups were used. Dosing was performed by a solid-phase desorption system which was integrated in the fresh water supply allowing for a constant delivery of test concentrations to the fish chambers. The procedure of column generated concentrations was described in detail by [Schlechtriem et al. (2017)]. For the present study, two packed columns containing each 500 g Florisil® loaded with 200 mg of either MXC or BaP were used for each fish chamber. The uptake (exposure) phase of the study was followed by a 35 days depuration phase in uncontaminated water. The flow-through rate was maintained at 38.6 L/h for carp and 30.1 L/h for trout throughout the test. […] Additional 2-4 fish were sampled each, at the start and at the end of the exposure period, as well as at the end of the depuration period for lipid analysis. The total lipid content of the fish was measured individually by gravimetric analysis according to [Smedes (1999)].
(§2) Water samples (400 ml) were taken from the test chambers at least three times per week. Preparation for chemical analysis was performed by liquid-liquid extraction using n-hexane (10 ml) containing deuterated MXC (35 ng). The purified organic phase was subdivided into two equal parts and evaporated to dryness under a stream of nitrogen. One part of the residue was dissolved in 200 µL DCM for MXC analysis. The other part was mixed with 1 ml ACN: water (8:2, v/v) and subjected to BaP analysis. Whole fish samples were prepared for chemical analysis individually. After grinding the tissue with the addition of dry ice in a Thermomix™ 31 (Vorwerk), the finely powdered homogenate was lyophilized using an AdVantage freeze dryer (Ismatec). Aliquots of the dry samples (0.5 g) were spiked with deuterated internal standards (5 ng MXC-d6 and 0.2 ng BaP-d12) and extracted three times with acetone: DCM (1:1, v/v) (10 ml). The pooled extracts were then extracted with ultra-pure water (45 ml) and mixed with sodium chloride (5 g) to remove acetone and matrix. The organic phase was concentrated (0.5 ml) and dissolved in cyclohexane: DCM (1:1, v/v) (4.2 ml). This was subjected to gel permeation chromatography (GPC) (GILSON system equipped with pump 307, syringe pump 402, GX-271 liquid handler, 508 interface module, and Trilution® LC software; column i. d. 1.5 cm, material Bio-Beads S-X3, 200–400 mesh, Bio-Rad, flow rate 2 ml/min). Eluates containing MXC (26–31 min retention time) and BaP (32–38 min retention time) were evaporated to dryness and dissolved in hexane (1 ml) and toluol (50 µL), respectively. The collected MXC extracts were further concentrated by solid-phase extraction (SPE, Sep-Pak® Vac 12cc, 2 g, silica cartridges, Waters) using DCM: n-hexane (50:50, v/v) as eluent. Eluent and hexane were used to equilibrate and condition the column before sample loading and subsequent washing with DCM: n-hexane (30:70, v/v). The eluate containing MXC was dried down and reconstituted in toluol (0.5 ml).
(§3) MXC in the organic phase of samples from the in vitro incubations and in DCM extracts of water samples from the in vivo bioconcentration tests were analyzed by gas chromatography-mass spectrometry (GC-MS). The GC-MS system consisted of a HP5890 series II GC coupled to a HP5972 mass sensitive detector (Hewlett-Packard). Separations were performed on 5% phenyl polysilphenylene-siloxane capillary columns (BPX-5, 30 m length x 0.25 mm i. d, 0.25 µm df, SGE). […]

rainbow trout = test: In vivo bioconcentration test OECD TG 305, trout; parameters: species or system Oncorhynchus mykiss; conditions: for BCFSSL lipid-normalized steady-state bioconcentration factor: 5% lipid content
Description: as §1, §2, §3

common carp = test: In vivo bioconcentration test OECD TG 305, carp; parameters: species or system Cyprinus carpio; conditions: common carp; for Cf data, concentration measured in individual fish: BaP background corrected
Description: as §1, §2, §3

[3] = In vivo bioconcentration test OECD TG 305, carp; parameters: species or system Cyprinus carpio; conditions: common carp (Cyprinus carpio), in vivo, common carp; for concentration at 7 d: day 7 (uptake); for concentration at 14 d: day 14 (uptake); for concentration at 21 d: day 21 (uptake); for concentration at 28 d: day 28 (uptake); for concentration at 35 d: day 35 (end of uptake); for concentration at 40 d: day 40 (depuration); for concentration at 44 d: day 44 (depuration)
Description: as §1, §2, §3

[4] = BaP background corrected, read-out: Cf data, concentration measured in individual fish

## COc1ccc(C(c2ccc(OC)cc2)C(Cl)(Cl)Cl)cc1 [MXC, methoxychlor]
[1]
  log KOW: 5.08
[2]; [4]
  concentration at 7 d: 25.9 ng/g
  concentration at 14 d: 27.1 ng/g
  concentration at 21 d: 28 ng/g
  concentration at 28 d: 53.2 ng/g
  concentration at 40 d: 9.62 ng/g
[2]; read-out: Mean Cf
  concentration at 7 d: 23 ng/g
  concentration at 14 d: 21.1 ng/g
  concentration at 21 d: 21.5 ng/g
  concentration at 28 d: 41.9 ng/g
  concentration at 40 d: 13.8 ng/g
[2]; day 35 (end of uptake), read-out: Mean Cf
  concentration at 35 d: 46.4 ng/g
[2]; day 44 (depuration), read-out: Mean Cf
  concentration at 44 d: 6.06 ng/g
[2]; day 56 (depuration), outlier excluded, read-out: Mean Cf
  concentration at 56 d: 1.75 ng/g
[2]; day 70 (end of depuration), read-out: Mean Cf
  concentration at 70 d: 1.01 ng/g
Rainbow trout; Rainbow trout - high BCFSS
  BCFSS: 3854 L/kg
  Cf,SS concentration in fish at steady-state: 44.1 µg/kg
  kTG growth corrected depuration rate constant: 0.201 day⁻¹
  BCFSSL lipid-normalized steady-state bioconcentration factor: 2122 L/kg
Rainbow trout; Rainbow trout - high BCFSS (kT-high, day 56-70 values excluded)
  kT depuration rate constant: 0.227 day⁻¹
Rainbow trout; rainbow trout
  Cf,SS concentration in fish at steady-state: 30.76 µg/kg
  kT depuration rate constant: 0.150 day⁻¹
  kTG growth corrected depuration rate constant: 0.124 day⁻¹
  BCFSSL lipid-normalized steady-state bioconcentration factor: 1479 L/kg
Rainbow trout; rainbow trout, day 7 (uptake), BaP background corrected
  Cf data, concentration measured in individual fish: 30.0 µg/kg and 18.7 µg/kg and 17.4 µg/kg
Rainbow trout; rainbow trout, day 14 (uptake), BaP background corrected
  Cf data, concentration measured in individual fish: 18.1 µg/kg and 25.4 µg/kg and 13.7 µg/kg
Rainbow trout; rainbow trout, day 21 (uptake), BaP background corrected
  Cf data, concentration measured in individual fish: 23.9 µg/kg and 14.5 µg/kg and 19.4 µg/kg
Rainbow trout; rainbow trout, day 28 (uptake), BaP background corrected
  Cf data, concentration measured in individual fish: 50.1 µg/kg and 34.5 µg/kg and 29.6 µg/kg
Rainbow trout; rainbow trout, day 35 (end of uptake), BaP background corrected
  Cf data, concentration measured in individual fish: 50.9 µg/kg and 49.5 µg/kg and 23.5 µg/kg and 61.7 µg/kg
Rainbow trout; rainbow trout, day 40 (depuration), BaP background corrected
  Cf data, concentration measured in individual fish: 15.9 µg/kg and 15.8 µg/kg
Rainbow trout; rainbow trout, day 44 (depuration), BaP background corrected
  Cf data, concentration measured in individual fish: 2.19 µg/kg and 7.53 µg/kg and 8.23 µg/kg and 6.28 µg/kg
Rainbow trout; rainbow trout, day 56 (depuration), 5.42 identified as outlier and excluded
  Cf data, concentration measured in individual fish: 5.42 µg/kg and 2.06 µg/kg and 2.23 µg/kg and 0.969 µg/kg
Rainbow trout; rainbow trout, day 70 (end of depuration)
  Cf data, concentration measured in individual fish: 2.46 µg/kg and 0.320 µg/kg and 0.237 µg/kg
Common carp
  Cf,SS concentration in fish at steady-state: 8.24 µg/kg
  kT depuration rate constant: 0.255 day⁻¹
  kTG growth corrected depuration rate constant: 0.244 day⁻¹
Common carp; 5% lipid content
  BCFSSL lipid-normalized steady-state bioconcentration factor: 621 L/kg
Common carp; day 7 (uptake)
  Cf data, concentration measured in individual fish: 11.7 µg/kg and 10.7 µg/kg and 13.8 µg/kg
Common carp; day 14 (uptake)
  Cf data, concentration measured in individual fish: 9.30 µg/kg and 10.0 µg/kg and 8.83 µg/kg
Common carp; day 21 (uptake)
  Cf data, concentration measured in individual fish: 9.96 µg/kg and 6.95 µg/kg and 8.16 µg/kg
Common carp; day 28 (uptake)
  Cf data, concentration measured in individual fish: 5.90 µg/kg and 7.85 µg/kg and 7.00 µg/kg
Common carp; day 35 (end of uptake)
  Cf data, concentration measured in individual fish: 7.32 µg/kg and 7.30 µg/kg and 7.40 µg/kg
Common carp; day 40 (depuration)
  Cf data, concentration measured in individual fish: 2.71 µg/kg and 1.73 µg/kg and 2.16 µg/kg
Common carp; day 44 (depuration)
  Cf data, concentration measured in individual fish: 0.719 µg/kg and 0.956 µg/kg and 0.535 µg/kg
[3]; [4]
  concentration at 7 d: 12.8 ng/g
  concentration at 14 d: 11.4 ng/g
  concentration at 21 d: 9.16 ng/g
  concentration at 28 d: 7.02 ng/g
  concentration at 35 d: 8.35 ng/g
  concentration at 40 d: 3.02 ng/g
  concentration at 44 d: 0.819 ng/g
[3]; read-out: Mean Cf
  concentration at 7 d: 12.2 ng/g
  concentration at 14 d: 9.88 ng/g
  concentration at 21 d: 8.56 ng/g
  concentration at 28 d: 6.94 ng/g
  concentration at 35 d: 7.59 ng/g
  concentration at 40 d: 2.4 ng/g
  concentration at 44 d: 0.757 ng/g
